Data: ChEMBL document CHEMBL3044940, “Activities of essential oils from Asarum heterotropoides var. mandshuricum against five phytopathogens” (Crop Prot, 2010)
Values after ≈ are worked out from the molar mass of the structure shown. Active and inactive are the calls of the source. The rule behind the calls is not given here.

Columns and labels:
Format in all cases: functional, organism-based
Phytophthora cactorum [1] = assay: Growth inhibition of Phytophthora cactorum after 48 hr
Phytophthora cactorum [2] = assay: Induction of changes in hyphae ultrastructures in Phytophthora cactorum at 0.052 ug/ml by transmission electron microscopy
Rhizoctonia solani = assay: Growth inhibition of Rhizoctonia solani after 48 hr
Phytophthora cactorum [3] = assay: Induction of changes in hyphae ultrastructures in Phytophthora cactorum assessed as membranes obscuring at 0.052 ug/ml by transmission electron microscopy
[4] = test system: Colletotrichum gloeosporioides; assay: Growth inhibition of Colletotrichum gloeosporioides after 48 hr
Phytophthora cactorum [5] = assay: Induction of changes in hyphae ultrastructures in Phytophthora cactorum assessed as mitochondria level changes at 0.052 ug/ml by transmission electron microscopy
Phytophthora cactorum [6] = assay: Induction of changes in hyphae ultrastructures in Phytophthora cactorum assessed as cell wall thickening at 0.052 ug/ml by transmission electron microscopy
Phytophthora cactorum [7] = assay: Induction of changes in hyphae ultrastructures in Phytophthora cactorum assessed as plasmalemma invagination at 0.052 ug/ml by transmission electron microscopy; conditions: Plasma
Fusarium solani = assay: Growth inhibition of Fusarium solani after 48 hr
Alternaria humicola = assay: Growth inhibition of Alternaria humicola after 48 hr
Phytophthora cactorum [8] = assay: Induction of changes in hyphae ultrastructures in Phytophthora cactorum assessed as endoplasmic reticulum structure changes at 0.052 ug/ml by transmission electron microscopy

Row | SMILES | IC50 (Phytophthora cactorum [1]) | Activity (Phytophthora cactorum [2]) | IC50 (Rhizoctonia solani) | Activity (Phytophthora cactorum [3]) | IC50 [4] | Activity (Phytophthora cactorum [5]) | Activity (Phytophthora cactorum [6]) | Activity (Phytophthora cactorum [7]) | growth inhibition (GI) (Fusarium solani) | IC50 (Alternaria humicola) | Activity (Phytophthora cactorum [8])
1 | COCC(=O)N(c1c(C)cccc1C)C(C)C(=O)OC (configuration not stated) [METALAXYL] | 0.013 µg/mL (≈ 0.0465 µM) | – | – | – | – | – | – | – | – | – | –
2 | C=CCc1ccc(OC)c(OC)c1 [METHYLEUGENOL] | 0.052 µg/mL (≈ 0.292 µM) | Active | 0.279 µg/mL (≈ 1.57 µM) | Active | 0.09 µg/mL (≈ 0.505 µM) | Active | Active | Active | inactive | 0.144 µg/mL (≈ 0.808 µM) | Active
